Patent US7230132B2, “Aryl N-cyanoguanidines and methods related thereto” (Migenix Corp., priority 2001, dated 2007)

Tests used:
Type in all cases: cell-based
TC28 cells [1] = test: GAG release from TC28 chondrocytes in polyHEME plates (DMB dye binding assay); details: for % Decrease in GAG Release, IL-1b / % Decrease in GAG Release, NOC-12 / % Decrease in GAG Release, SIN-1: TC28 cells in polyHEME plates, 1 μM compound; for % Decrease in GAG Release, IL-1b: trigger IL-1 10 ng/ml; for % Decrease in GAG Release, NOC-12: trigger NOC-12 25 μM; for % Decrease in GAG Release, SIN-1: trigger SIN-1 10 μM; for EC50: approximate, prevention of GAG release, polyHEME plates, 1 h pretreatment, 72 h
Protocol: Immortalized TC28 (a.k.a. “[…]”) juvenile rib chondrocytes were provided by Dr. Mary Goldring (Harvard Medical School, Boston, Mass.). The TC28 cells were maintained in monolayer culture in DMEM/Ham's F12 (1:1) and supplemented with 10% FCS, 1% L-glutamine, 100 units/ml Penicillin and […] Streptomycin (Omega Scientific, Tarzana, Ca) and cultured at 37° C. with 5% CO2. Additionally, to further study chondrocytic cells in a more physiologic nonadherent state, in some experiments, TC28 cells were transferred to 6 well plates that had been previously coated for 18 hours at 22° C. with 10% (v/v) in 95% ethanol solution of the cell adhesion inhibitor poly 2-hydroxyethyl methacrylate (polyHEME), followed by two washes in PBS. Complete DMEM/Ham's F12 medium was then added to the wells and the cells studied for up to 72 hours in culture (Folkman J. and Moscona A: Role of cell shape in growth control, Nature 273:345-349, 1978; Reginato A, Iozzo R, Jimenez S: Formation of Nodular Structures Resembling Mature Articular Cartilage in Long-Term Primary Cultures of Human Fetal Epiphyseal Chondrocytes on a Hydrogel Substrate, Arthritis Rheum 37: 1338-1349, 1994). Type II collagen and aggrecan expression were confirmed using RT-PCR, which verified maintenance of chondrocyte phenotype. The chondrocyte protective effects of representative compounds were screened in vitro. The agonists included a donor of nitric oxide (NOC-12), a donor of peroxynitrite (SIN-1), and human recombinant IL-1beta. […] Cytotoxicity was studied using standard LDH release assay, and chondrocyte intracellular ATP was measured by standard luciferase assay. The enhanced release from chondrocytes of glycosaminoglycans (GAG) is a central feature of osteoarthritic chondrocytes, and is known to be stimulated potently by IL-1, which, like NO and peroxynitrite is a major pathogenic factor in osteoarthritis. […] The digestion of the interfering proteins accomplished in this manner allowed the GAG release to be more readily detectable, and the GAG release was quantified by the standard dimethylene blue (DMB) dye binding colorimetric assay. In brief, the cell extract digested from above was combined with 46 μM DMB, 40 mM glycine and 40 mM NaCl (pH 3.0) and immediately read at 525 nm and compared again at a standard curve generated with samples of 1-50 μg/ml chondroitin sulfate (Farndale R, Buttle D, Barrett A: Improved quantitation and discrimination of sulphated glycosaminoglycans by us of dimethylmethylene blue, Biochimica et Biophysica Acta 883: 173-177, 1986; SztrolovicsR, White R, Poole R, Mort J, Roughley P: Resistance of small leucine-rich repeat proteoglycans to proteolytic degradation during interleukin-1 stimulated cartilage catabolism, Biochem J. 339: 571-577, 1999). Collagen production was measured by following ^3H proline incorporation as described in Johnson et al., Arthritis Rheum. 43:11560-70, 2000. […] In these experiments, TC28 cells in polyHEME coated plates were pre-treated for 1 hr followed by exposure to trigger for 72 hrs in the present of Compound (1).

TC28 cells [2] = test: Cell viability assay (LDH release, CytoTox 96); details: approximate, prevention of cell death, 1 h pretreatment, 24 h exposure
Protocol: 1×10^5 TC28 cells (DMEM/F12 media with 10% FCS, 1% glutamine, 1% P/S) were plated each well in a 96 well plate and allowed to adhere overnight. The cells were washed once with PBS and media changed to contain only 1% FCS. Compound (1) at various concentrations was added to the cells for a pretreatment of 1 hr. The media was removed and fresh compound+/− the toxic stimuli were added. The cells were then incubated for 24 hrs at 37° C. Following the incubation the media was collected and used for analysis in the CytTox 96 Nonradioactive Cytotoxicity Assay (Promega, Madison, Wis.). Briefly the LDH release from the dead cells was quantified in a 30 min enzymatic reaction that results in the conversion of a tetrazolium […] to a red formazan product. The results were then expressed as the percent of cells dead relative to the release of LDH by the control cells.
(§1) The results of the above Cell Viability and ATP Assays are presented in Table 3, which provides the approximate EC50 values (μM) for prevention of SIN-1 and NOC-12 mediated cell death and ATP depletion by Compound (1). In these assays, TC28 cells were pre-treated for one hour followed by 24-hour exposure to trigger in the presence of Compound (1).

TC28 cells [3] = test: ATP assay (luciferase); details: approximate, prevention of ATP depletion, 1 h pretreatment, 24 h exposure
Protocol: 5×10^5 TC28 cells were plated in a 60 mm dish and allowed to adhere overnight. The cells were then washed with PBS and media was changed to 1% FCS containing media. Compound (1) was added for 1 hr pretreatment of the cells at 37° C. The media was removed and fresh compound+/− the toxic stimuli were added and the cells incubated for 24 hrs at 37° C. The cells were gently scraped into PBS and washed and then the pellets were snap frozen in dry ice. The cells were then extracted in 0.4 N perchloric acid and incubated on ice for 15 min. The cells were centrifuged at 14,000 rpm for 15 min and the supernatant removed. 24% (by volume) of 2.2 M KHCO3 was added to neutralize the solution and the precipitate was pelleted by centrifugation. This supernatant was mixed with the ATP assay mix from the Sigma ATP Luciferase kit and the reaction was counted for 15 sec (with an initial 5 sec delay) in triplicate. Counts were corrected for total DNA in the cell pellet (see Table 3).
as §1

TC28 cells [4] = test: Collagen synthesis (3H proline incorporation); details: approximate, prevention of inhibition of collagen synthesis, polyHEME plates, 1 h pretreatment, 72 h
Protocol: Collagen production was measured by following ^3H proline incorporation as described in Johnson et al., Arthritis Rheum. 43:11560–70, 2000. The results are presented in Table 4, which provides the approximate EC50 values (μM) for prevention of SIN-1, NOC-12 and IL-1 mediated GAG release (via Example 3) and inhibition of collagen synthesis (via Johnson et al.) in chondrocytes by Compound (1). In these experiments, TC28 cells in polyHEME coated plates were pre-treated for 1 hr followed by exposure to trigger for 72 hrs in the present of Compound (1).

TC28 cells [5] = test: Oxygen consumption / mitochondrial respiration in TC28 monolayer culture; details: 500 μM SIN-1 for 4 hr +/- 10 μM compound, FIG. 1
Protocol: In this experiment, TC28 cells were treated with 500 μM SIN-1 for 4 hr+/−10 μM Compound (1): State 3/4—basal respiration rate with no substrate addition; State 4—respiration rate in present of […] oligomycin; State 3U—maximal state 3 uncoupled respiration rate due to addition of the uncoupler CCCP.

bovine cartilage slices [6] = test: Bovine cartilage organ culture, IL-1-mediated GAG release; details: approximate, IL-1 10 ng/ml, 6 h pretreatment, 24 h, read-out: EC50 GAG Release, IL-1 Trigger
Protocol: (§2) Mature bovine knees were obtained and cartilage from the femoral condyles and patellar groove was removed in full thickness slices. (1–3 mm). Circular cores (6–7 mm in diameter) were punched out of the tissue. The cores were washed twice with media (1% FCS, 1% P/S, 1% glutamine containing DMEM high glucose) and then placed in 96 wells plates. The slices were incubated in media (as above) at 37° C. for 48 hrs to allow for recovery from the isolation process. After the recovery period, the media was removed and fresh media with Compound (1) was added to the slices for a pretreatment period of 6 hrs. Then the media was removed and fresh Compound (1)+/− IL-1 (at 10 ng/ml) was added and incubated at 37° C. for 24 hrs. The conditioned media was collected and the GAG and NO release were analyzed. Finally the slices were weighed to correct for slight variations in size or thickness. The results of this experiment are presented in Table 5, which provides the approximate EC50 values (μM) for prevention of IL-1-mediated GAG and NO release in bovine cartilage slices by Compound (1).

bovine cartilage slices [7] = test: Bovine cartilage organ culture, IL-1-mediated NO release; details: approximate, IL-1 10 ng/ml, 6 h pretreatment, 24 h, read-out: EC50 NO Release, IL-1 Trigger
Protocol: as §2

Compound	% Decrease in GAG Release, IL-1b (TC28 cells [1])	% Decrease in GAG Release, NOC-12 (TC28 cells [1])	% Decrease in GAG Release, SIN-1 (TC28 cells [1])	further results
COc1ccc(NC(N)=NC#N)cc1Cl [(2)]	40.9%	50.1%	23.6%	
COc1cc(NC(N)=NC#N)cc(OC)c1OC [(4)]	1.5%	17.2%	11.3%	
Cc1cc(Cl)ccc1NC(N)=NC#N [(8)]	43.8%	32.3%	55.2%	
Cc1cc(C)cc(NC(N)=NC#N)c1 [(7)]	56.6%	46.2%	42.3%	
N#CN=C(N)Nc1ccc(N2CCOCC2)cc1 [(3)]	29.1%	28.0%	21.9%	
Cc1cc(O)ccc1NC(N)=NC#N [Compound (1)]	36.8%	27.4%	47.7%	EC50 (TC28 cells [1]; IL-1 challenge 10 ng/ml, read-out: EC50 GAG Release, trigger IL-1): ~0.1 µM; EC50 (TC28 cells [1]; NOC-12 challenge 25 μM, read-out: EC50 GAG Release, trigger Noc12): ~0.1 µM; EC50 (TC28 cells [1]; SIN-1 challenge 10 μM, read-out: EC50 GAG Release, trigger Sin-1): ~0.1 µM; EC50 (TC28 cells [2]; NOC-12 challenge 250 μM, read-out: EC50 Cell Viability, trigger Noc12): ~0.01 µM; EC50 (TC28 cells [2]; SIN-1 challenge 100 μM, read-out: EC50 Cell Viability, trigger Sin-1): ~0.01 µM; EC50 (TC28 cells [3]; NOC-12 challenge 250 μM, read-out: EC50 ATP Depletion, trigger Noc12): ~0.1 µM; EC50 (TC28 cells [3]; SIN-1 challenge 100 μM, read-out: EC50 ATP Depletion, trigger Sin-1): ~0.1 µM; EC50 (TC28 cells [4]; IL-1 challenge 10 ng/ml, read-out: EC50 Collagen, trigger IL-1): ~1 µM; EC50 (TC28 cells [4]; NOC-12 challenge 25 μM, read-out: EC50 Collagen, trigger Noc12): ~1 µM; EC50 (TC28 cells [4]; SIN-1 challenge 10 μM, read-out: EC50 Collagen, trigger Sin-1): ~1 µM; SIN-1-mediated inhibition of mitochondrial respiration (TC28 cells [5]): blocked SIN-1-mediated inhibition of mitochondrial respiration; EC50 (bovine cartilage slices [6]): ~10 µM; EC50 (bovine cartilage slices [7]): ~10 µM
N#CN=C(N)Nc1cccc(C(F)(F)F)c1 [(5)]	30.7%	14.2%	35.0%	
Cc1ccc(NC(N)=NC#N)c(C)c1 [(6)]	2.4%	11.0%	1.6%	
